Laboratory results as given in ChEMBL document CHEMBL5500324, “The potential of marine-derived piperazine alkaloids: Sources, structures and bioactivities” (Eur J Med Chem, 2024).
≈ marks a conversion by molar mass, not a printed value.

Tests used:
[1] = Cytotoxicity against human A2780cis cells assessed as cell growth inhibition by SRB assay; type: functional, cell-based
K562 = assay: Cytotoxicity against human K562 cells assessed as reduction in cell growth by MTT assay; type: functional, cell-based
L5178Y = assay: Cytotoxicity against mouse L5178Y cells assessed as reduction in cell growth by MTT assay; type: functional, cell-based
NCI-H460 [2] = assay: Growth inhibition of human NCI-H460 cells; type: functional
SW-1736 = assay: Growth inhibition of human SW-1736 cells; type: functional
P388 [3] = assay: Anticancer activity against mouse P388 cells assessed as inhibition of cell growth; type: functional; conditions: read-out: ED50 (the source's name)
BXPC-3 = assay: Growth inhibition of human BXPC-3 cells assessed as reduction in cell viability measured after 3 days by CCK-8 assay; type: functional; conditions: BXPC-3, 72 h, time 3 day
DU-145 [4] = assay: Growth inhibition of human DU-145 cells; type: functional
SF-268 [5] = assay: Growth inhibition of human SF-268 cells; type: functional
MCF7 [6] = assay: Growth inhibition of human MCF7 cells; type: functional
SK-N-SH = assay: Growth inhibition of human SK-N-SH cells; type: functional
FaDu = assay: Growth inhibition of human FaDu cells; type: functional
KM-20L2 = assay: Growth inhibition of human KM-20L2 cells; type: functional
HCT-116 [7] = assay: Cytotoxicity against human HCT-116 cells; type: functional, cell-based
HeLa = assay: Cytotoxicity against human HeLa cells; type: functional, cell-based
MCF7 [8] = assay: Cytotoxicity against human MCF7 cells; type: functional, cell-based
HEp-2 = assay: Cytotoxicity against human HEp-2 cells assessed as reduction in cell growth; type: functional, cell-based
HepG2 [9] = assay: Cytotoxicity against human HepG2 cells; type: functional, cell-based
P388 [10] = assay: Cytotoxicity against mouse P388 cells assessed as cell growth inhibition; type: functional; conditions: read-out: ED50 (the source's name)
U-937 [11] = assay: Cytotoxicity against human U-937 cells assessed as reduction in cell viability; type: functional, cell-based
PC-3 [12] = assay: Cytotoxicity against human PC-3 cells assessed as reduction in cell viability; type: functional, cell-based
[13] = Cytotoxicity against mouse FM3A tsFT210 cells assessed as inhibition of cell growth; type: functional, cell-based
SF-268 [14] = assay: Cytotoxicity against human SF-268 cells assessed as reduction in cell growth incubated for 48 hrs by SRB assay; type: functional, cell-based; conditions: SF-268, 48 h
NCI-H460 [15] = assay: Cytotoxicity against human NCI-H460 cells assessed as reduction in cell growth incubated for 48 hrs by SRB assay; type: functional, cell-based; conditions: NCI-H460, 48 h
MCF7 [16] = assay: Cytotoxicity against human MCF7 cells assessed as reduction in cell growth incubated for 48 hrs by SRB assay; type: functional, cell-based; conditions: MCF7, 48 h
NCI-H460 [17] = assay: Cytotoxicity against human NCI-H460 cells assessed as reduction in cell growth incubated for 72 hrs by SRB assay; type: functional, cell-based; conditions: NCI-H460, 72 h
HCT-116 [18] = assay: Cytotoxicity against human HCT-116 cells assessed as reduction in cell viability incubated for 24 hrs by MTT assay; type: functional, cell-based; conditions: HCT-116, 24 h
HepG2 [19] = assay: Cytotoxicity against human HepG2 cells assessed as reduction in cell growth incubated for 72 hrs by SRB assay; type: functional, cell-based; conditions: HepG2, 72 h
HCT-116 [20] = assay: Cytotoxicity against human HCT-116 cells assessed as reduction in cell viability incubated for 72 hrs by MTT assay; type: functional, cell-based; conditions: HCT-116, 72 h
RKO = assay: Cytotoxicity against human RKO cells assessed as inhibition of cell growth measured after 48 hrs by MTT assay; type: functional, cell-based
HEK293 = assay: Cytotoxicity against HEK293 cells assessed as cell growth inhibition; type: functional, cell-based; conditions: Homo sapiens
HepG2 [21] = assay: Cytotoxicity against human HepG2 cells assessed as reduction in cell growth incubated for 48 hrs by SRB assay; type: functional, cell-based; conditions: HepG2, 48 h
PC-3 [22] = assay: Cytotoxicity against human PC-3 cells assessed as reduction in cell viability measured after 72 hrs by MTT assay; type: functional, cell-based; conditions: PC-3, 72 h
SF-268 [23] = assay: Cytotoxicity against human SF-268 cells assessed as reduction in cell growth incubated for 72 hrs by SRB assay; type: functional, cell-based; conditions: SF-268, 72 h
U-937 [24] = assay: Cytotoxicity against human U-937 cells assessed as reduction in cell viability incubated for 72 hrs by MTT assay; type: functional, cell-based; conditions: U-937, 72 h
MCF7 [25] = assay: Cytotoxicity against human MCF7 cells assessed as reduction in cell growth incubated for 72 hrs by SRB assay; type: functional, cell-based; conditions: MCF7, 72 h
NCI-H460 [26] = assay: Cytotoxicity against human NCI-H460 cells assessed as reduction in cell viability incubated for 48 hrs by MTT assay; type: functional, cell-based; conditions: NCI-H460, 48 h
HCT-116 [27] = assay: Antiproliferative activity against human HCT-116 cells assessed as reduction in cell viability incubated for 24 hrs by MTT assay; type: functional, cell-based; conditions: HCT-116, 24 h
QG-56 = assay: Cytotoxicity against human QG-56 cells assessed as reduction in cell growth incubated for 24 hrs by MTT assay; type: functional, cell-based; conditions: QG-56, 24 h
[28] = Cytotoxicity against human BEAS-2B cells incubated for 72 hrs measured by MTT assay; type: toxicity, cell-based
DU-145 [29] = assay: Cytotoxicity against human DU-145 cells assessed as cell growth inhibition measured after 48 hrs by MTT assay; type: functional, cell-based; conditions: DU-145, 48 h
NCI-H23 = assay: Cytotoxicity against human NCI-H23 cells assessed as reduction in cell viability incubated for 48 hrs by MTT assay; type: functional, cell-based; conditions: NCI-H23, 48 h
A549 = assay: Cytotoxicity against human A549 cells assessed as reduction in cell viability measured after 24 hrs by MTT assay; type: functional, cell-based; conditions: A549, 24 h

SMILES: C[C@]12NC(=O)[C@@H](Cc3c1[nH]c1ccccc31)n1c2nc2ccccc2c1=O
- IC50 [1]: 38800 nM
- IC50 (K562): 15000 nM
- IC50 (L5178Y): 3600 nM

SMILES: CN1C(=O)N[C@H]2[C@@H]3NC(=O)c4ccc(Br)n4[C@@H]3C[C@]21O [AGELASTATIN A]
- GI50 (NCI-H460 [2]): 0.036 µg/mL (≈ 0.106 µM)
- GI50 (SW-1736): 0.12 µg/mL (≈ 0.352 µM)
- EC50 (P388 [3]): 0.052 µg/mL (≈ 0.152 µM)
- GI50 (BXPC-3): 0.089 µg/mL (≈ 0.261 µM)
- GI50 (DU-145 [4]): 0.056 µg/mL (≈ 0.164 µM)
- GI50 (SF-268 [5]): 0.038 µg/mL (≈ 0.111 µM)
- GI50 (MCF7 [6]): 0.033 µg/mL (≈ 0.0967 µM)
- GI50 (SK-N-SH): 0.042 µg/mL (≈ 0.123 µM)
- GI50 (FaDu): 0.24 µg/mL (≈ 0.703 µM)
- GI50 (KM-20L2): 0.036 µg/mL (≈ 0.106 µM)

SMILES: CC(C)/C=C1\NC(=O)[C@H](CCC(N)=O)n2c1nc1ccccc1c2=O [AURANTIOMIDE C]
- IC50 (HCT-116 [7]): 9.51 µg/mL (≈ 27.9 µM)
- IC50 (HeLa): 18.5 µg/mL (≈ 54.3 µM)
- IC50 (MCF7 [8]): 20.5 µg/mL (≈ 60.2 µM)
- IC50 (HEp-2): 37.6 µg/mL (≈ 111 µM)
- IC50 (HepG2 [9]): 23.9 µg/mL (≈ 70.3 µM)

SMILES: CS[C@H]1C(=O)N2[C@H]3Nc4ccccc4[C@@]3(c3c[nH]c4ccccc34)[C@H](O)[C@]2(SC)C(=O)N1C [BIONECTIN C]
- EC50 (P388 [10]): 6.5 µg/mL (≈ 13.5 µM)

SMILES: CN1C(=O)[C@]23CC4=CC=C[C@H](O)[C@H]4N2C(=O)[C@@]1(CO)SS3 [GLIOTOXIN]
- IC50 (U-937 [11]): 200 nM
- IC50 (PC-3 [12]): 390 nM
- IC50 [13]: 0.15 µg/mL (≈ 0.46 µM)
- IC50 (SF-268 [14]): 240 nM
- IC50 (NCI-H460 [15]): 240 nM
- IC50 (MCF7 [16]): 80 nM
- IC50 (NCI-H460 [17]): 210 nM
- IC50 (HCT-116 [18]): 1240 nM
- IC50 (HepG2 [19]): 240 nM
- IC50 (HCT-116 [20]): 410 nM
- IC50 (RKO): 800 nM
- IC50 (HEK293): 1580 nM
- IC50 (HepG2 [21]): 210 nM
- IC50 (PC-3 [22]): 15900 nM
- IC50 (SF-268 [23]): 240 nM
- IC50 (U-937 [24]): 520 nM
- IC50 (MCF7 [25]): 80 nM

SMILES: COC1=C(C)C(=O)C2=C(C1=O)[C@@H]1[C@@H]3CC4=C(C(=O)C(OC)=C(C)C4=O)[C@H](CO)N3[C@@H](C#N)[C@H](C2)N1C [JOURNNAMYCIN A]
- IC50 (NCI-H460 [26]): 8000 nM
- IC50 (HCT-116 [27]): 13 nM
- IC50 (QG-56): 59 nM
- IC50 at 72 h [28]: 14800 nM
- IC50 (DU-145 [29]): 29 nM
- IC50 (NCI-H23): 2300 nM
- IC50 (A549): 3100 nM
